In US20250361259A1, “AMORPHOUS FORM OF REDUCED ß-NICOTINAMIDE MONONUCLEOTIDE CALCIUM SALT, AND PREPARATION METHOD AND USE THEREFOR” (EffePharm (Shanghai) Co., Ltd., priority 2023, published 2025):
Like-named read-outs stand apart in the source and are kept apart here.

Key:
[1] = Stability comparison, solids placed openly in a stability test chamber at 25° C. and 65% RH (purity by HPLC, appearance); type: physicochemical; settings: open, calcium salt
Experimental: NMNH is the reduced form of NMN, sensitive to air, easily oxidized, and unstable, making it unsuitable for long-term storage and market promotion. WO2023160405(A1) reported the NMNH disodium salt compound and its crystalline and amorphous forms. […] Such stability fails to meet the shelf-life requirements for commercial products, hindering market promotion. The NMNH calcium salt amorphous solids A/B/C/D were each placed openly in a stability test chamber at 25° C. and 65% RH to evaluate their stability, yielding the data shown in Table 1 and Table 2.

[2] = Hygroscopicity study (water content, KF) at 25° C., 65% RH; type: physicochemical
Experimental: The NMNH calcium salt amorphous solids A/B/C/D were each placed openly in a stability test chamber at 25° C. and 65% RH to evaluate their stability, yielding the data shown in Table 1 and Table 2. […] The amorphous solid of NMNH disodium salt is more unstable in the air. After 1 day of storage, it absorbs water from powder to oil, and the purity drops from 99.30% to 99.02%.

[3] = 25° C., 65% RH, according to WO2023160405(A1), cited from earlier work
[4] = according to WO2023160405(A1); cited from earlier work

| Compound | Purity (HPLC, area %) ([1]; 0 day) [%] | Purity (HPLC, area %) ([1]; 5 days) [%] | Purity (HPLC, area %) ([1]; 60 days) [%] | Water content of NMNH calcium salt amorphous solid (KF) ([2]; 0 day) [%] | Water content of NMNH calcium salt amorphous solid (KF) ([2]; 5 days) [%] | Water content of NMNH calcium salt amorphous solid (KF) ([2]; 60 days) [%] | also measured |
| --- | --- | --- | --- | --- | --- | --- | --- |
| NC(=O)C1=CN([C@@H]2O[C@H](COP(=O)(O)O)[C@@H](O)[C@H]2O)C=CC1.[Ca+2] [NMNH calcium salt Amorphous form A, reduced β-nicotinamide mononucleotide calcium salt] | 99.51 | 99.50 | 99.50 | 0.8 | 0.8 | 0.9 | – |
| NC(=O)C1=CN([C@@H]2O[C@H](COP(=O)(O)O)[C@@H](O)[C@H]2O)C=CC1.[Ca+2] [NMNH calcium salt Amorphous form B, reduced β-nicotinamide mononucleotide calcium salt] | 99.28 | 99.28 | 99.28 | 1.3 | 1.3 | 1.3 | – |
| NC(=O)C1=CN([C@@H]2O[C@H](COP(=O)(O)O)[C@@H](O)[C@H]2O)C=CC1.[Ca+2] [NMNH calcium salt Amorphous form C, reduced β-nicotinamide mononucleotide calcium salt] | 99.14 | 99.14 | 99.13 | 1.5 | 1.6 | 1.5 | – |
| NC(=O)C1=CN([C@@H]2O[C@H](COP(=O)(O)O)[C@@H](O)[C@H]2O)C=CC1.[Ca+2] [NMNH calcium salt Amorphous form D, reduced β-nicotinamide mononucleotide calcium salt] | 99.50 | 99.49 | 99.49 | 1.9 | 1.9 | 1.9 | – |
| NC(=O)C1=CN([C@@H]2O[C@H](COP(=O)([O-])[O-])[C@@H](O)[C@H]2O)C=CC1.[Na+].[Na+] [NMNH disodium salt Amorphous form, NMNH disodium salt] | – | – | – | – | – | – | Purity (HPLC, area %) ([3]; 0 day, disodium salt): 99.30%; Purity (HPLC, area %) ([3]; 0 day, listed as NMNH disodium salt amorphous powder, disodium salt): 99.30%; Purity (HPLC, area %) ([3]; 0 day, listed as amorphous solid of NMNH disodium salt, disodium salt): 99.30%; Appearance after storage (powder to oil) ([3]; 1 day): oil; Purity (HPLC, area %) ([3]; 1 day, disodium salt): 99.02%; Purity (HPLC, area %) ([3]; 1 day, listed as NMNH disodium salt amorphous powder, disodium salt): 99.02%; Purity (HPLC, area %) ([3]; 1 day, listed as amorphous solid of NMNH disodium salt, disodium salt): 99.02% |
| NC(=O)C1=CN([C@@H]2O[C@H](COP(=O)([O-])[O-])[C@@H](O)[C@H]2O)C=CC1.[Na+].[Na+] [NMNH disodium salt Crystal form A, NMNH disodium salt] | – | – | – | – | – | – | Purity (HPLC, area %) ([3]; 0 day, disodium salt): 99.33%; Purity (HPLC, area %) ([3]; 0 day, listed as NMNH disodium salt crystal form A, disodium salt): 99.33%; Purity (HPLC, area %) ([3]; 0 day, listed as NMNH disodium salt crystalline Form A solid, disodium salt): 99.33%; Purity (HPLC, area %) ([3]; 1 day, disodium salt): 99.27%; Purity (HPLC, area %) ([3]; 5 days): 99.01% |
| NC(=O)C1=CN([C@@H]2O[C@H](COP(=O)([O-])[O-])[C@@H](O)[C@H]2O)C=CC1.[Na+].[Na+] [NMNH disodium salt crystal form B, NMNH disodium salt] | – | – | – | – | – | – | Solid form change when stored in the air [4]: absorb water and transform into crystal form A |
